Measurements reported in the METLIN SMRT retention time set (Domingo-Almenara et al. 2019).

assay: gradient 5% acetonitrile 3 min, to 50% in 2 min, to 85% in 15 min, held 3 min, 100 µL/min; details: column: Zorbax Extend-C18 2.1 x 50 mm; eluents: water / acetonitrile, 0.1% formic acid
Method in brief: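 In both positive and negative ionization mode, a quadrupole time-of-flight mass spectrometer coupled to HPLC analyzed pure standards run in mixtures of ~100 molecules. The Zorbax Extend-C18 column (2.1 × 50 mm, 1.8 μm) was operated at 100 μL/min with water and acetonitrile, each containing 0.1% formic acid. The dead volume was 40 μL and the dwell volume 900 μL. Retention time came from adduct peaks that were computationally picked and individually inspected by hand.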

First: CCOc1ccc(CNC(=O)c2cc(-c3ccncc3)cn2C)cc1
Second: CCOC(=O)c1nc(NCCc2ccc(OCC)cc2)c2ccccc2n1
The RP-LC retention time of the first is lower: 644 s for the first, 836 s for the second.

First: CCOC(=O)c1[nH]c(C)c(CCC(=O)N2CCC(C(=O)NCc3cccs3)CC2)c1C
Second: Cc1ccccc1Oc1nccnc1N1CCC(C(=O)NCCC2=CCCCC2)CC1
The RP-LC retention time of the first is lower: 755 s for the first, 1110 s for the second.

Compared with `N#Cc1ccc(S(=O)(=O)N2CCCN(S(=O)(=O)c3ccccc3)CCC(=O)NCC2)cc1`, `CN(CC(=O)N1CCN(c2ccc(Cl)cc2)CC1)S(=O)(=O)c1ccc2c(c1)CCCC(=O)N2` is higher in RP-LC retention time: 797 s for the first, 828 s for the second.

Going from `COc1ccc(NC(=O)C2CCN(S(C)(=O)=O)c3ccccc3O2)cc1` (stereo not given) to `COc1ccc(S(=O)(=O)C(CNC(=O)c2cccc([N+](=O)[O-])c2C)c2ccco2)cc1` (stereo not given), the RP-LC retention time falls from 824 s to 664 s.

First: Cc1nc2cc3c(cc2n1CC(=O)NC1CCCc2ccccc21)OCCO3 (stereo not given)
Second: CCCc1cc(C2CCCN2C(=O)Nc2ccccc2C)no1 (stereo not given)
The RP-LC retention time of the first is lower: 682 s for the first, 902 s for the second.

First: CCCC(=O)Nc1ccc(CCc2nc3ccc(C(=O)NC4CCCC4)cc3[nH]2)cc1
Second: CCc1ccc(NC(=O)CSc2ccc(N3CCC(C(=O)NC(C)C)CC3)nn2)cc1
The RP-LC retention time of the first is lower: 650 s for the first, 680 s for the second.

First: CC(C)CN1CCn2cc(C(=O)N3CCC(C)CC3)nc2C1
Second: CC(C)CN1C(=O)c2cccn2CC1C(=O)NCCCOC1CCN(C(C)C)CC1 (stereo not given)
The RP-LC retention time of the first is higher: 599 s for the first, 598 s for the second.

First: O=C(NCCC1CCN(C(=O)Nc2ccccc2F)CC1)c1ccco1
Second: CN1C(=O)c2cc(C(=O)NCc3ccccc3F)nn2CC1(C)C(=O)NC1CCCC1 (stereo not given)
The RP-LC retention time of the first is higher: 1170 s for the first, 698 s for the second.

Compared with `O=C(NCCn1ncc2c(=O)n(Cc3cccc(Cl)c3)cnc21)c1cc2ccccc2o1`, `Cc1nc(Nc2ccc(F)cn2)sc1C(=O)NCCCc1ccccc1` is higher in RP-LC retention time: 780 s for the first, 883 s for the second.

Going from `Clc1ccccc1-c1ccc(CNc2ncn[nH]2)o1` to `Cc1nc2cc(-c3noc(CCc4c[nH]c5ccccc45)n3)ccc2o1`, the RP-LC retention time rises from 676 s to 1020 s.

First: Cn1c(=O)n([C@@H]2CCN(C(=O)CCc3nc4ccccc4s3)C2)c2ncccc21
Second: Cn1cc(CCN2CCN(S(=O)(=O)c3ccccc3F)CC2)c2cccnc21
The RP-LC retention time of the first is higher: 733 s for the first, 608 s for the second.

Going from `COc1ccc(OCc2nn3c(-c4ccc(OC)c(OC)c4)nnc3s2)cc1` to `COc1ccc(-c2noc(Cc3nc(-c4ccc(Br)cc4)cs3)n2)cc1`, the RP-LC retention time rises from 867 s to 1280 s.

First: O=C(c1ccc(Cn2cncn2)cc1)N1CCN(c2ccccc2)CC1
Second: CSc1ccc(CNC(=O)CCC(=O)N2Cc3cccn3-c3ccccc32)cc1
The RP-LC retention time of the first is lower: 707 s for the first, 961 s for the second.

Going from `Cc1ccc(F)cc1NC(=O)Cn1cnc2nc(N3CCC(C(=O)NC4CC4)CC3)sc2c1=O` to `Cc1cccc(NC(=O)Cn2cnc3nc(N4CCCC(C(=O)NC(C)C)C4)sc3c2=O)c1C` (stereo not given), the RP-LC retention time rises from 674 s to 712 s.

First: CCn1cc(S(=O)(=O)NCCn2c(C)cnc2-c2ccccc2)cn1
Second: C=CCn1c(C)c(CC(=O)NCC(C)C)c(=O)n2nc(-c3ccccc3)nc12
The RP-LC retention time of the first is lower: 560 s for the first, 779 s for the second.

First: Cc1cccc(NC(=O)C2CCN(S(=O)(=O)c3ccc4c(c3)sc(=O)n4C(C)C)CC2)n1
Second: CCc1nc2cc(N3CCC(C(=O)Nc4ccc(OC)c(OC)c4)CC3)cnc2nc1CC
The RP-LC retention time of the first is higher: 815 s for the first, 766 s for the second.

Compared with `Cc1cccc(NC(=O)Nc2ccc(-c3cccc4[nH]nc(N)c34)cc2)c1`, `Cc1ccc(NC(=O)Cn2c(C)nc3c(sc4nc(-c5ccccc5)ccc43)c2=O)cc1F` is higher in RP-LC retention time: 789 s for the first, 1110 s for the second.

Compared with `COCc1nc(NCc2cccnc2)ncc1C(=O)O`, `CC(C)n1c(CCNC(=O)c2ccc(F)cc2F)nc2cccnc21` is lower in RP-LC retention time: 809 s for the first, 671 s for the second.

Going from `O=C(c1ccnnc1)N1CC(F)(F)C[C@H]1c1nnc(-c2ccccc2)o1` to `O=C(Nc1nc(-c2ccccc2)cs1)Oc1ccccc1`, the RP-LC retention time rises from 696 s to 1030 s.

First: COC(=O)c1cc2c(=O)n(CCN3CCOCC3)ccc2nc1C
Second: Cc1ccccc1C(=O)N1CCN(CC(F)(F)F)CC1
The RP-LC retention time of the first is lower: 560 s for the first, 752 s for the second.

First: Cc1ccc(Cl)cc1N1CCN(C(=O)c2c(C)oc3c2C2=NCCN2C=N3)CC1
Second: O=C(c1cc2ccccc2[nH]1)N1CCN2CCS(=O)(=O)N(C3CC3)C(=O)C2C1 (stereo not given)
The RP-LC retention time of the first is lower: 705 s for the first, 780 s for the second.

Going from `O=C(Cc1nnc2c(-c3nc(C4CC4)no3)cccn12)N1CCCCCC1` to `CCc1nnc2ccc(NC(C)C)nn12`, the RP-LC retention time rises from 674 s to 718 s.

With `COc1cc(OC)cc(-c2cc3cnc(N)nc3nc2NC(=O)NC(C)(C)C)c1` the RP-LC retention time was 814 s.
